Test results as given in US20230365576A1, “BRM Targeting Compounds And Associated Methods Of Use” (Prelude Therapeutics Incorporated, priority 2022, published 2023).

Tests used:
SMARCA4 = target: T1, SMARCA4 (Homo sapiens, UniProt P51532); test: SMARCA4 HiBiT degradation assay in HeLa cells; type: cell-based; conditions: 18 hours; for Dmax: HeLa
T1 construct: SMARCA4-HiBiT knock-in Hela monoclonal cell (CS3023226) were purchased from Promega; host or cells: HeLa (CRISPR HiBiT knock-in monoclonal line, heterozygous)
T1 sequence (P51532 whole entry): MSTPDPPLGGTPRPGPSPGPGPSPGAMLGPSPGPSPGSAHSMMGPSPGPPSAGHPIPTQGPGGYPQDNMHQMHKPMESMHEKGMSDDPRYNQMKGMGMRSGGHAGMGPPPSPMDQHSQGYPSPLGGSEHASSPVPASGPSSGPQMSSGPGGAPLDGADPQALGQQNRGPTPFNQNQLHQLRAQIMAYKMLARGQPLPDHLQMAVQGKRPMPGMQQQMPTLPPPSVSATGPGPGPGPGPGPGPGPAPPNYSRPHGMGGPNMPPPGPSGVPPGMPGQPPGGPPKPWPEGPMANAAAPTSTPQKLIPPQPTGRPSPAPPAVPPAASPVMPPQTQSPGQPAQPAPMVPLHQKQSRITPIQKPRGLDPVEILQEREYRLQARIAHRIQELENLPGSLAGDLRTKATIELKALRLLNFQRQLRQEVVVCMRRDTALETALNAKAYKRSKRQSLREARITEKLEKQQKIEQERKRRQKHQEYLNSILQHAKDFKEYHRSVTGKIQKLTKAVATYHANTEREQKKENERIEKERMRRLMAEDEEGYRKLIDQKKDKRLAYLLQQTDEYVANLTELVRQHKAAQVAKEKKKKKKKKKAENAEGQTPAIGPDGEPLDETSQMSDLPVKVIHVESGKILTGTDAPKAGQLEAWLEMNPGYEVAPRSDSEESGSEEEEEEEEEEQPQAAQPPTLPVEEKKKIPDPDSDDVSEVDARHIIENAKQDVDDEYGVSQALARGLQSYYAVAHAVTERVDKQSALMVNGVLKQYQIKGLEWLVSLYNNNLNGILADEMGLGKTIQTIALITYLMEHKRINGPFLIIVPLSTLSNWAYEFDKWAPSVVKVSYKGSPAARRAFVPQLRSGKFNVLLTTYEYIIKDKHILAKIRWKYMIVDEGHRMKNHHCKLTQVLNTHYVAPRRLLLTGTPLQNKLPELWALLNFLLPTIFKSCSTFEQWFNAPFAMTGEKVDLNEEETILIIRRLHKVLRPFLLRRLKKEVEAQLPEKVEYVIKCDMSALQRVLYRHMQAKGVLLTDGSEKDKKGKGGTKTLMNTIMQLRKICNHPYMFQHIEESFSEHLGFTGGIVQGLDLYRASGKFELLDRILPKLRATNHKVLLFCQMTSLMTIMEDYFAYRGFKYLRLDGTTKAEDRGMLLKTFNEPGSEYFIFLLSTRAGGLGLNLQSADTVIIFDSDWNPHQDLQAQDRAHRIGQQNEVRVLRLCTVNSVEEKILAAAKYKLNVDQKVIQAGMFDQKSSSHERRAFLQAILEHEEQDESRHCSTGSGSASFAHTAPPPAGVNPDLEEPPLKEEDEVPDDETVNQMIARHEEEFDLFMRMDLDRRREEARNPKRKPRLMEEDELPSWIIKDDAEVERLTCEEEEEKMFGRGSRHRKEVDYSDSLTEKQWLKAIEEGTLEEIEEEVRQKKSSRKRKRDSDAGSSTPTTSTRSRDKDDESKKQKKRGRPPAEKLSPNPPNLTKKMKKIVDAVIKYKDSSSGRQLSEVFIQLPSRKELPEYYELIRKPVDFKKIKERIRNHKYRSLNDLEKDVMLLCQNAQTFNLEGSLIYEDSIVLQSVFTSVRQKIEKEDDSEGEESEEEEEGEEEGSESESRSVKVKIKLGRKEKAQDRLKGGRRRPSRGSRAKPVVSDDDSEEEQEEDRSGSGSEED
How it was run: (§1)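 Degradation measured as HiBiT luminescence (Nano-Glo lytic reagent) after 18 h compound exposure at 37° C. Cells were HeLa clones carrying heterozygous HiBiT tags on SMARCA2 or SMARCA4, 2500 per well; compounds at 3-fold serial dilution from 10 μM.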

SMARCA2 = target: T2, SMARCA2 (Homo sapiens, UniProt P51531); test: SMARCA2 HiBiT degradation assay in HeLa cells; type: cell-based; conditions: 18 hours; for DC50: read-out: SMARCA2 IC50; for Dmax: HeLa
T2 construct: SMARCA2-HiBiT knock-in Hela monoclonal cell (CS302366); host or cells: HeLa (CRISPR HiBiT knock-in monoclonal line, heterozygous)
T2 sequence (P51531 whole entry): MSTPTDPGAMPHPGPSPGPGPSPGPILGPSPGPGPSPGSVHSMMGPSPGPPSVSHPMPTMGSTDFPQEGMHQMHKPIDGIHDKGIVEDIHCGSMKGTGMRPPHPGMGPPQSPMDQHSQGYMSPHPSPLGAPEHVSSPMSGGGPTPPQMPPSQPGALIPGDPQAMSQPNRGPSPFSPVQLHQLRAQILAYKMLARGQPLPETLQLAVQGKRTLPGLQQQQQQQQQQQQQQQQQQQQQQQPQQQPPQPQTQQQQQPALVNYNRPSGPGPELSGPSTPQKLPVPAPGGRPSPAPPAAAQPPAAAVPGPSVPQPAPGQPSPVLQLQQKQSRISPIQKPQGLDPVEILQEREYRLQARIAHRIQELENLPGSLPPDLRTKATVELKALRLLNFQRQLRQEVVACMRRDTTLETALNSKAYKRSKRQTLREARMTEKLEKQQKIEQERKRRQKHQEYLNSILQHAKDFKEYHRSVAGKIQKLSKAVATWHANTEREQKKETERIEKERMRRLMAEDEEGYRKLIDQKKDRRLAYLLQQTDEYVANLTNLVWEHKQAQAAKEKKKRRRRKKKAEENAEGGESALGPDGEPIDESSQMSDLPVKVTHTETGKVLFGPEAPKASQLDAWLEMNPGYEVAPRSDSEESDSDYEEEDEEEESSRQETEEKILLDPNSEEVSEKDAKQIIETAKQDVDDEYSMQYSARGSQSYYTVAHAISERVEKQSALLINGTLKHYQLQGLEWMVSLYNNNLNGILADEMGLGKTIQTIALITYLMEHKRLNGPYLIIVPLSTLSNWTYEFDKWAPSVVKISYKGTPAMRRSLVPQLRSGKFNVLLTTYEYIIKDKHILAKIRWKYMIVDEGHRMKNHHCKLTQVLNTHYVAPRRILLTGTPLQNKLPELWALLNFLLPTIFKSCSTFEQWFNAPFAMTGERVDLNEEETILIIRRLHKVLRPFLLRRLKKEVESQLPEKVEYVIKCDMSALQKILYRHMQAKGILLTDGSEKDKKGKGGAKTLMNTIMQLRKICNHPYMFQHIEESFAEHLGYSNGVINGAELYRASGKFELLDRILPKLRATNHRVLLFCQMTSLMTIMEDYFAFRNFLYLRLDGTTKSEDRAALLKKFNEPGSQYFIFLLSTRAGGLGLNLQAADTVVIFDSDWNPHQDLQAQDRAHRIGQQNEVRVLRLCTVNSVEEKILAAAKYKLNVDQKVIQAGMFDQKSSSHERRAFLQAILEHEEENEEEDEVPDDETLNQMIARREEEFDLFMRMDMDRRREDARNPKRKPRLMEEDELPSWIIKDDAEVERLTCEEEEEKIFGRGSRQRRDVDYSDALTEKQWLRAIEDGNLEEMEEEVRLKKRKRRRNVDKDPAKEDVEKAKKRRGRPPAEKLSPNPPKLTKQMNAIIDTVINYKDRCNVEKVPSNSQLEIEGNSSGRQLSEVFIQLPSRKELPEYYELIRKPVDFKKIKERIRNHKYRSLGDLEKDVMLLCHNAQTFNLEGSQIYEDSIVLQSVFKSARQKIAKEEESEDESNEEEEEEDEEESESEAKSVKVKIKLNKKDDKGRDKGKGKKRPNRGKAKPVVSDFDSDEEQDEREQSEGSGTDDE
How it was run: as §1

Structure (SMILES)	DC50 (SMARCA4)	Dmax (SMARCA4)	DC50 (SMARCA2)	Dmax (SMARCA2)	SMARCA4 DMax % (SMARCA4)	SMARCA2 DMax % (SMARCA2)
C[C@@H]1CN(C[C@H]2CN(c3ccc4c(c3)CN(C3CCC(=O)NC3=O)C4=O)CCO2)C[C@H](C)N1C(=O)N1CCN2c3cc(-c4cccc(F)c4O)nnc3NC[C@H]2C1 (stereo partly drawn) [Example 3, 3-(5-((S)-2-(((3R,5S)-4-((S)-2-(3-fluoro-2-hydroxyphenyl)-6,6a,7,8,9,10-hexahydro-5H-pyrazino[1′,2′:4,5]pyrazino[2,3-c]pyridazine-8-carbonyl)-3,5-dimethylpiperazin-1-yl)methyl)morpholino)-1-oxoisoindolin-2-yl)piperidine-2,6-dione]	< 100 nM	< 50%	< 100 nM	> 75%	–	–
CC12CNc3nnc(-c4cccc(F)c4O)cc3N1CCN(C[C@H]1CC[C@H](CN3CCN(c4ccc5c(c4)C(=O)N([C@H]4CCC(=O)NC4=O)C5)CC3)CC1)C2 (single isomer, unassigned) [Example 118]	< 100 nM	–	< 100 nM	–	–	–
CC1(C)CN(CC2CCN(c3ccc4c(c3)C(=O)N([C@H]3CCC(=O)NC3=O)C4)CC2)CCN1C(=O)N1CCN2c3cc(-c4cccc(F)c4O)nnc3NCC2(C(F)(F)F)C1 (single isomer, unassigned) [Example 101]	> 1000 nM	–	< 100 nM	–	C (C=Dmax<50%)	B (B=50%<Dmax≤75%)
CC1(C)CN(CC2CCN(c3ccc4c(c3)C(=O)N(C3CCC(=O)NC3=O)C4)CC2)CCN1C(=O)N1CCN2c3cc(-c4cccc(F)c4O)nnc3NCC2(C)C1 (single isomer, unassigned) [Example 10, 3-(6-(4-((4-(2-(3-fluoro-2-hydroxyphenyl)-6a-methyl-6,6a,7,8,9,10-hexahydro-5H-pyrazino[1′,2′:4,5]pyrazino[2,3-c]pyridazine-8-carbonyl)-3,3-dimethylpiperazin-1-yl)methyl)piperidin-1-yl)-1-oxoisoindolin-2-yl)piperidine-2,6-dione]	< 100 nM	–	< 100 nM	–	C (C=Dmax<50%)	A (A=Dmax>75%)
C[C@@H]1CN(CC2CCN(c3ccc4c(c3)C(=O)N(C3CCC(=O)NC3=O)C4)CC2)C[C@@H](C)N1C(=O)N1CCN2c3cc(-c4cc(F)cc(F)c4O)nnc3NCC2(C)C1 (single isomer, unassigned) [Example 28]	< 100 nM	< 50%	< 100 nM	> 75%	–	–
O=C1CCC(N2Cc3ccc(N4CCN(C[C@H]5CC[C@H](C(=O)N6CCN7c8cc(-c9cccc(F)c9O)nnc8NC[C@H]7C6)CC5)CC4)cc3C2=O)C(=O)N1 (stereo partly drawn) [Example 104, 3-(6-(4-(((1S,4r)-4-((S)-2-(3-fluoro-2-hydroxyphenyl)-6,6a,7,8,9,10-hexahydro-5H-pyrazino[1′,2′:4,5]pyrazino[2,3-c]pyridazine-8-carbonyl)cyclohexyl)methyl)piperazin-1-yl)-1-oxoisoindolin-2-yl)piperidine-2,6-dione]	100 to 1000 nM	< 50%	< 100 nM	> 75%	–	–
C[C@@H]1CN(C[C@H]2CN(c3ccc4c(c3)CN(C3CCC(=O)NC3=O)C4=O)CCO2)C[C@H](C)N1C(=O)N1CCN2c3cc(-c4cc(F)cc(F)c4O)nnc3NC[C@H]2C1 (stereo partly drawn) [Example 21, 3-(5-((S)-2-(((3R,5S)-4-((S)-2-(3,5-difluoro-2-hydroxyphenyl)-6,6a,7,8,9,10-hexahydro-5H-pyrazino[1′,2′:4,5]pyrazino[2,3-c]pyridazine-8-carbonyl)-3,5-dimethylpiperazin-1-yl)methyl)morpholino)-1-oxoisoindolin-2-yl)piperidine-2,6-dione]	< 100 nM	< 50%	< 100 nM	> 75%	–	–
C[C@@H]1CN(CC2CCN(c3ccc4c(c3)C(=O)N(C3CCC(=O)NC3=O)C4)CC2)C[C@@H](C)N1C(=O)N1CCN2c3cc(-c4cccc(Cl)c4O)nnc3NCC2(C)C1 (single isomer, unassigned) [Example 63]	< 100 nM	–	< 100 nM	–	–	–
C[C@@H]1CN(C[C@H]2CCN(c3ccc4c(c3)C(=O)N(C3CCC(=O)NC3=O)C4)C[C@@H]2F)C[C@H](C)N1C(=O)N1CCN2c3cc(-c4cccc(F)c4O)nnc3NC[C@H]2C1 (single isomer, unassigned) [Example 44]	< 100 nM	< 50%	< 100 nM	> 75%	–	–
CCC12CNc3nnc(-c4cccc(F)c4O)cc3N1CCN(C(=O)N1[C@H](C)CN(CC3CCN(c4ccc5c(c4)C(=O)N(C4CCC(=O)NC4=O)C5)CC3)C[C@@H]1C)C2 (single isomer, unassigned) [Example 62]	< 100 nM	–	< 100 nM	–	A (A=Dmax>75%)	A (A=Dmax>75%)
C[C@@H]1CN(CC2CCN(c3ccc4c(c3)C(=O)N(C3CCC(=O)NC3=O)C4)CC2)C[C@@H](C)N1C(=O)N1CCN2c3cc(-c4cc(F)cc(F)c4O)nnc3NC[C@H]2C1 (stereo partly drawn) [Example 45, 3-(6-(4-(((3R,5R)-4-((S)-2-(3,5-difluoro-2-hydroxyphenyl)-6,6a,7,8,9,10-hexahydro-5H-pyrazino[1′,2′:4,5]pyrazino[2,3-c]pyridazine-8-carbonyl)-3,5-dimethylpiperazin-1-yl)methyl)piperidin-1-yl)-1-oxoisoindolin-2-yl)piperidine-2,6-dione]	< 100 nM	< 50%	< 100 nM	> 75%	–	–
CCC12CNc3nnc(-c4cccc(F)c4O)cc3N1CCN(C(=O)N1C[C@H](C)N(CC3CCN(c4ccc5c(c4)C(=O)N(C4CCC(=O)NC4=O)C5)CC3)C[C@H]1C)C2 (single isomer, unassigned) [Example 84]	< 100 nM	50 to 75%	< 100 nM	> 75%	–	–
CC1(C)CN(CC2CCN(c3ccc4c(c3)C(=O)N(C3CCC(=O)NC3=O)C4)CC2)CCN1C(=O)N1CCN2c3cc(-c4cccc(F)c4O)nnc3NCC2(C)C1 (mixture of isomers) [Example 6, 3-(6-(4-((4-(2-(3-fluoro-2-hydroxyphenyl)-6a-methyl-6,6a,7,8,9,10-hexahydro-5H-pyrazino[1′,2′:4,5]pyrazino[2,3-c]pyridazine-8-carbonyl)-3,3-dimethylpiperazin-1-yl)methyl)piperidin-1-yl)-1-oxoisoindolin-2-yl)piperidine-2,6-dione]	< 100 nM	> 75%	< 100 nM	> 75%	–	–
CCC12CNc3nnc(-c4cccc(Cl)c4O)cc3N1CCN(C(=O)C1(F)CCN(CC3CCN(c4ccc5c(c4)C(=O)N([C@H]4CCC(=O)NC4=O)C5)CC3)CC1)C2 (single isomer, unassigned) [Example 106]	< 100 nM	> 75%	< 100 nM	> 75%	–	–
C[C@@H]1CN(C[C@H]2CCN(c3ccc4c(c3)C(=O)N(C3CCC(=O)NC3=O)C4)C[C@@H]2F)C[C@H](C)N1C(=O)N1CCN2c3cc(-c4cc(F)cc(F)c4O)nnc3NC[C@H]2C1 (mixture of isomers) [Example 42, 3-(6-((rac-3R,4R)-4-(((3S,5R)-4-((S)-2-(3,5-difluoro-2-hydroxyphenyl)-6,6a,7,8,9,10-hexahydro-5H-pyrazino[1′,2′:4,5]pyrazino[2,3-c]pyridazine-8-carbonyl)-3,5-dimethylpiperazin-1-yl)methyl)-3-fluoropiperidin-1-yl)-1-oxoisoindolin-2-yl)piperidine-2,6-dione]	< 100 nM	< 50%	< 100 nM	> 75%	–	–
CCC12CNc3nnc(-c4cccc(F)c4O)cc3N1CCN(C(=O)N1CCN(CC3CCN(c4ccc5c(c4)C(=O)N(C4CCC(=O)NC4=O)C5)CC3)CC1(C)C)C2 (mixture of isomers) [Example 8, 3-(6-(4-((4-(6a-ethyl-2-(3-fluoro-2-hydroxyphenyl)-6,6a,7,8,9,10-hexahydro-5H-pyrazino[1′,2′:4,5]pyrazino[2,3-c]pyridazine-8-carbonyl)-3,3-dimethylpiperazin-1-yl)methyl)piperidin-1-yl)-1-oxoisoindolin-2-yl)piperidine-2,6-dione]	< 100 nM	50 to 75%	< 100 nM	> 75%	–	–
C[C@@H]1CN(CC2CCN(c3ccc4c(c3)C(=O)N(C3CCC(=O)NC3=O)C4)CC2)C[C@H](C)N1C(=O)N1CCN2c3cc(-c4cc(F)cc(F)c4O)nnc3NCC2(C)C1 (single isomer, unassigned) [Example 34]	< 100 nM	> 75%	< 100 nM	> 75%	–	–
CCC12CNc3nnc(-c4cc(F)cc(F)c4O)cc3N1CCN(C(=O)N1[C@H](C)CN(CC3CCN(c4ccc5c(c4)C(=O)N(C4CCC(=O)NC4=O)C5)CC3)C[C@@H]1C)C2 (single isomer, unassigned) [Example 87]	< 100 nM	–	< 100 nM	–	–	–
CCC12CNc3nnc(-c4cc(F)cc(F)c4O)cc3N1CCN(C(=O)C1(F)CCC(CN3CCN(c4ccc5c(c4)C(=O)N([C@H]4CCC(=O)NC4=O)C5)CC3)CC1)C2 (single isomer, unassigned) [Example 103]	< 100 nM	–	< 100 nM	–	B (B=50%<Dmax≤75%)	A (A=Dmax>75%)
C[C@@H]1C[C@H](CN2CCN(c3ccc4c(c3)C(=O)N([C@H]3CCC(=O)NC3=O)C4)CC2)C[C@H](C)N1C(=O)N1CCN2c3cc(-c4cccc(F)c4O)nnc3NC[C@]2(C(F)F)C1 [Example 72, (S)-3-(6-(4-(((2R,4R,6S)-1-((R)-6a-(difluoromethyl)-2-(3-fluoro-2-hydroxyphenyl)-6,6a,7,8,9,10-hexahydro-5H-pyrazino[1′,2′:4,5]pyrazino[2,3-c]pyridazine-8-carbonyl)-2,6-dimethylpiperidin-4-yl)methyl)piperazin-1-yl)-1-oxoisoindolin-2-yl)piperidine-2,6-dione]	< 100 nM	> 75%	< 100 nM	> 75%	–	–
